Reference: paper PMC3312006 (2011)
pIC50: −log10 of the molar value.

Experiments:
[1] = target: T1, histone acetyltransferase p300 (KAT3B) (Homo sapiens, UniProt Q09472); assay: in vitro filter-binding HAT assay with […]acetyl-CoA and HeLa core histones; assay type: biochemical
T1 sequence (Q09472 1066-1707): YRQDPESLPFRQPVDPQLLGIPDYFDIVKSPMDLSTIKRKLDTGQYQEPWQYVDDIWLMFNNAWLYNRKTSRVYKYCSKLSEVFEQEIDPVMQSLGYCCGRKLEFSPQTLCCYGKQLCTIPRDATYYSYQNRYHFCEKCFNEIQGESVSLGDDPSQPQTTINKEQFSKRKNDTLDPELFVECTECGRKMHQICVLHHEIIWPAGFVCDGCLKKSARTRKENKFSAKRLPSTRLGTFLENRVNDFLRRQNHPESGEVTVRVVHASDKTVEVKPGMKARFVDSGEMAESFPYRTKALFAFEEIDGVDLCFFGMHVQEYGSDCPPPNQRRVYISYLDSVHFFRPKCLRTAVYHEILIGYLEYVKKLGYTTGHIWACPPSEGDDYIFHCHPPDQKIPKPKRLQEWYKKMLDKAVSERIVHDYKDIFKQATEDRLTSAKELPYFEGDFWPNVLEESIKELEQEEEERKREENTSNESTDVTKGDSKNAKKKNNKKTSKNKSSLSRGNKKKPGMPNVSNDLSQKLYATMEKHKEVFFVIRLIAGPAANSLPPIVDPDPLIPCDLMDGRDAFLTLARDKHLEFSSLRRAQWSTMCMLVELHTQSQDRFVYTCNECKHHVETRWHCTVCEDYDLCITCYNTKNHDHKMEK

[2] = target: T1, histone acetyltransferase p300 (KAT3B); assay: biochemical

| Structure (SMILES) | pIC50 [1] | pIC50 [2] |
| --- | --- | --- |
| CCCCC[C@H](O)/C=C/[C@H]1C(=O)C=C[C@@H]1C/C=C\CCCC(=O)O [PGJ2] | < 5.70 |  |
| CCCCC[C@H](O)C/C=C1/C(=O)C=C[C@@H]1C/C=C\CCCC(=O)O [Δ^12-PGJ2] |  | ~6.12 |
